# Test results reported in patent US20210311061A1, “USE OF TROP-2 AS PREDICTIVE MARKER OF RESPONSE TO ANTI-TUMOR THERAPY BASED ON INHIBITORS OF CD9, AKT AND MOLECULES OF THE TETRASPANIN SIGNALLING NETWORK” (ONCOXX BIOTECH S.R.L., priority 2012, published 2021).
# T1: Trop-2 (human, wild-type) (human, UniProt P09758 27-323)
# T1 construct: whole, on cells; Full-length protein expressed in cells (MTE 4-14 transfectants, MCF7); also called T2
# T1 sequence (looked up): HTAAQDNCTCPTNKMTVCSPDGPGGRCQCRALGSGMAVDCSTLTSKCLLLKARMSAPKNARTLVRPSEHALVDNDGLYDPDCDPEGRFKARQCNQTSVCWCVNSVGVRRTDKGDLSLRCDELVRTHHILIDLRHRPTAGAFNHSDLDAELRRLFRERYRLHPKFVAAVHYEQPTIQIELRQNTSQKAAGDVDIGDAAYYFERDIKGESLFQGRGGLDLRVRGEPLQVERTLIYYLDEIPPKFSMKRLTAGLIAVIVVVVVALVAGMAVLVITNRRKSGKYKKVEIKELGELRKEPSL
# Key:
# [1] = test system: Colo205 colon cancer cells; test: Xenografts in athymic nude mice, Colo205; details: 0.35 mg/mouse intraperitoneally every day, in vivo growth curves
# Protocol: (§1) MTE 4-14 immortalized cell line transfected with Trop-2 (Alberti, Nutini et al. 1994), or Colo205 colon cancer cells, endogenously expressing Trop-2, were injected subcutaneously (4×10^6 cells/injection) into nude mice groups (8 weeks females, CD1-Foxn1 nu/nu mice (Charles River Laboratories, Calco, Lecco, Italy). MTE 4-14 cells transfected with Trop-2 were co-injected with Matrigel 1:3 vol/vol (growth factor reduced matrix, BD Biosciences, Franklin Lakes, N.J. USA). A stock solution of MK-2206 in DMSO was diluted at the time of use in apyrogenic saline solution, to a final concentration of 0.7 mg/ml, and the drug was administered intraperitoneally at a dose of 0.35 mg/mouse every day, starting from the time in which the tumors became palpable. Control group mice were treated with the vehicle alone. Mice were visually inspected every 5-7 days and the major and minor diameters of the experimental tumors were measured. The tumor volume was calculated using the formula for the volume of ellipsoid (Dxd2/2). MTE 4-14 cells transfected with the empty vector were not tumorigenic in this model. […]
# [2] = test system: MTE 4-14 cells transfected with Trop-2; test: Xenografts in athymic nude mice, MTE 4-14 transfected with Trop-2; details: MTE 4-14/Trop-2; 0.35 mg/mouse intraperitoneally every day; in vivo growth curves
# Protocol: as §1
# Akt = test: Western blot of Akt phosphorylation in MTE 4-14 transfectants with or without PMA; type: cell-based, murine
# Protocol: Western blotting was performed as previously described (El Sewedy, Fornaro et al. 1998). In brief, cell lysates were analyzed by electrophoresis on denaturing polyacrylamide gel (SDS-PAGE) and transfered onto nitrocellulose filters. Filters were incubated with the relevant primary antibodies (Abcam, Cambridge, UK; Santa Cruz) in TBS with 5% non-fat dried milk. Hybridized filters were washed in TBS, 0.1% Tween-20. […] Signal intensity was quantified with NIH-image 1.62, using as reference a Kodak gray-scale standards power curve (www.kodak.com).
# Trop-2 [3] = test: Precipitation of cholesterol from BRIJ lysate, precipitation of Trop-2; details: MTE4-14 cells transfected with Trop-2; Western blot, FIG. 3f
# Protocol: Cells were also harvested by scraping and lysed in buffer with 1% BRIJ. The supernatant was mixed with either 1/10 (vol/vol) methanol (control) or 1/10 (vol/vol) 10% digitonin in methanol, and incubated on ice for 10 min. Cell membranes were recovered by centrifugation at 12,000 g for 15 min. The pellet was washed in cold acetone, resuspended in Laemmli buffer and analysed by Western blotting.
# [4] = test system: MTE 4-14 cells transfected with Trop-2; test: In vitro cell-growth assay, MTE 4-14 cells transfected with Trop-2; type: cell-based, murine; details: siRNA transfection, growth curves, FIG. 7d
# Protocol: (§2) MTE 4-14 cells transfected with the empty vector or with Trop-2 were seeded at 1.5-3×10^3 cells/well in 96-well plates (five replica wells per data point). Cell numbers were quantified by the MTT colorimetric assay (Roche Molecular Biochemicals, Mannheim, Germany) or by staining with crystal violet. Cell numbers were normalised against a reference standard curve of serially diluted cell samples.
# (§3) Cells were treated with 50-100-200-400 nM A6730_SIGMA (Sigma Technical Company, St Louis, Mo. 63178-9916) or with 400 nM MK-2206 (Selleck Chemicals, Houston, Tex.) to inhibit Akt. Stock solutions were prepared in DMSO and diluited in ethanol or water, with the final concentration of DMSO and ethanol never exceeding 0.1% and 1% respectively. Control cells received vehicle alone. A second treatment was performed 24 hours after seeding.
# (§4) The corresponding constructs were transiently transfected into MTE 4-14 cells, and their effect on cell proliferation was evaluated. The levels of transcripts after silencing were quantified by real-time RT-PCR. siRNAs directed against irrelevant targets were used as negative controls, chosen after thorough verification of the absence of spurious effects on cell growth. […]
# [5] = test system: MTE 4-14 cells transfected with the empty vector; test: In vitro cell-growth assay, MTE 4-14 cells transfected with the empty vector; type: cell-based, murine; details: siRNA transfection, growth curves, FIG. 7d
# Protocol: as §2, §3, §4
# Trop-2 [6] = test: Depletion of cholesterol from cell membranes, release of Trop-2; type: cell-based; details: MTE4-14 cells transfected with Trop-2; 10 mM, 37° C., 45 min; Western blot, FIG. 3f
# Protocol: To deplete cell membranes of cholesterol, intact cells were washed three times in PBS to remove serum and incubated in DMEM with 10 mM methyl-β-cyclodextrin at 37° C. for 45 min. Control cells were processed in parallel in the absence of methyl-β-cyclodextrin. Samples were centrifuged at 2000 g to remove cells and cell debris. Proteins in the supernatant were precipitated in trichloroacetic acid and analysed by Western blotting.
# [7] = biological target: T1, Trop-2 (human, wild-type); test: confocal microscopy of intact cells, co-capping and cell footprints, MTE 4-14 cells transfected with Trop-2
# Source text: FIG. 3. Interaction of Trop-2 and PKCα with tetraspanin molecules and CD9. (a-d) Confocal microscopy analysis of intact cell membranes (a), membrane areas showing co-capping (b), footprints of cell membranes (c, d) of MTE 4-14 cells transfected with Trop-2 (a-c, d top) or with the empty vector (d bottom) stained simultaneously with anti-Trop-2 and anti-CD9 (member of tetraspanin webs) or anti-caveolin (negative control) (a-c) or anti-CD9 and anti PKCα (d) conjugated with fluorescent molecules. Areas of colocalization are indicated by arrowheads. (e) Co-immunoprecipitation (IP) of Trop-2, PKCα, CD9 and tetraspanins. Immunoprecipitation was performed using primary antibodies against murine CD9, CD81 and CD151 (MTE 4-14cells) or human CD9, CD82 and CD151 (MCF7 cells); the presence of Trop-2 and PKCα in immunoprecipites was detected by Western blot. IP with anti-Trop-2: positive control. (f) Trop-2/cholesterol association. Release of Trop-2 in the culture medium after treatment with methyl-β-cyclodextrin (MβCD) (left). Precipitation of Trop-2 with digitonin from BRIJ lysate (right). The treatments were performed on MTE4-14 cells transfected with Trop-2, and the presence of Trop-2 in the soluble and insoluble fractions was assessed by Western blot.
molecule,measurement,setting,value
NC1(c2ccc(-c3nc4ccn5c(=O)[nH]nc5c4cc3-c3ccccc3)cc2)CCC1 [MK-2206],"Difference between control and treated tumors, P (two-way ANOVA)",[1],< 0.0001
same,"Difference between control and treated tumors, P (two-way ANOVA)",[2],< 0.0001
CCCCCCCCCCCCCC(=O)O[C@@H]1[C@@H](C)[C@@]2(O)[C@@H](C=C(CO)C[C@]3(O)C(=O)C(C)=C[C@@H]23)[C@@H]2C(C)(C)[C@]12OC(C)=O [PMA],Akt-S473 phosphorylation,"Akt; MTE 4-14 cells transfected with Trop-2, FIG. 6b","reduction, further increased by PMA"
same,Akt-T308 phosphorylation levels,"Akt; MTE 4-14 transfectants, FIG. 6b",no effect
C[C@@H]1CC[C@@]2(OC1)O[C@H]1[C@@H](O)[C@H]3[C@@H]4CC[C@H]5C[C@@H](O[C@@H]6O[C@H](CO)[C@H](O[C@@H]7O[C@H](CO)[C@@H](O)[C@H](O[C@@H]8OC[C@@H](O)[C@H](O)[C@H]8O)[C@H]7O[C@@H]7O[C@H](CO)[C@H](O)[C@H](O[C@@H]8O[C@H](CO)[C@@H](O)[C@H](O)[C@H]8O)[C@H]7O)[C@H](O)[C@H]6O)[C@H](O)C[C@]5(C)[C@H]4CC[C@]3(C)[C@H]1[C@@H]2C [digitonin],precipitation of Trop-2 from lysates of cell membranes in BRIJ,Trop-2 [3],precipitation of Trop-2
"anti-CD9 siRNA: anti-CD9 siRNA with target sense sequence 5′ GGTAGCAAGT GCATCAAAT 3′, expressed as hairpin RNA from pSUPER vector (sense GGTAGCAAGTGCATCAAAT; antisense ATTTGATGCACTTGCTACC; listed as Mus musculus)",proliferation of MTE 4-14 cells expressing Trop-2,[4],striking reduction
same,proliferation of Trop-2-negative cells,[5],essentially no impact
methyl-β-cyclodextrin,release of Trop-2 in the culture medium,Trop-2 [6],induce the release of Trop-2 in the culture medium
"caveolin (other, murine, UniProt P49817 2-178, looked up, Lipid-raft marker used as negative control in the confocal, co-capping and footprint analyses; also called caveolin-1) SGGKYVDSEGHLYTVPIREQGNIYKPNNKAMADEVTEKQVYDAHTKEIDLVNRDPKHLNDDVVKIDFEDVIAEPEGTHSFDGIWKASFTTFTVTKYWFYRLLSTIFGIPMALIWGIYFAILSFLHIWAVVPCIKSFLIEIQCISRVYSIYVHTFCDPLFEAIGKIFSNIRISTQKEI",binding result,[7],no binding
